The record followed here is paper PMC5325331, “A steroid like phytochemical Antcin M is an anti-aging reagent that eliminates hyperglycemia-accelerated premature senescence in dermal fibroblasts by direct activation of Nrf2 and SIRT-1” (Oncotarget, 2016).

Where two headings read alike, the source gives them in different places.

Series [1] relates to HNDFs. Description: Cytotoxicity of antcins against HNDFs (MTT assay). Format: cell-based, human. Conditions: for IC50: MTT assay, read-out: IC50 (50% inhibitory concentration) against HNDFs; for cytotoxicity to HNDFs up to the high treatment concentration: up to 20 μM, 72 h, MTT. As for the experimental part: Figure 2 Effects of antcins on HG-induced senescence in HNDFs A. Type of antcins subjected to screen for potential anti-aging agents for skin aging. Names and chemical structures of the antcins are shown in the left and centrer column, respectively. The cytotoxic effects of antcins against HNDFs. Briefly, HNDFs were incubated with increasing concentrations (1, 5, 10 and 20 μM) of antcins including antcin A, antcin B, antcin C, antcin H, anticn K and antcin M for 72 h and the cell viability was determined by MTT assay. The 50% inhibitory concentrations (IC50) of each compound against HNDFs are shown in right column. B. Cells were incubated with antcin A (10 μM), antcin H (10 μM) and antcin M (10 μM) in the presence of HG (30 mM) for 72 h. Cellular senescence was determined by SA-β-gal activity. […] C. HNDFs were incubated with antcin A (10 μM), antcin H (10 μM) and antcin M (10 μM) in the presence of HG (30 mM) for 72 h. Senescence-associated marker proteins such as p16^INK4A, p21^CIP1 and SMP30 were determined by western blot analysis. D. To determine the effect of antcins on cell proliferation efficacy, HNDFs 5 × 10^4 cells/well in 6-well plates were incubated with antcins in the presence of HG (30 mM) for 72 h. Number of viable cells were quantified by the tryphan blue exclusion method. Results are expressed as mean ± S.E.M of three indipendent expriments. Statistical significance was et at ^ФP < 0.05 compared to NG vs HG and *P < 0.05 compared to HG vs. samples.
(§1) Human normal dermal fibroblasts (HNDFs, CCD966SK) and human umbilical vein endothelial cells (HUVECs) were obtained from the Bioresource Collection and Research Center (BCRC), Hsinchu, Taiwan. HNDFs were grown in MEM containing 10% FBS, 2 mM L-glutamine, 100 U/mL penicillin and streptomycin at 37°C in a fully humidified atmosphere of 5% CO2. Likewise, HUVECs were grown in M-199 medium supplemented with ECGS, heparin, 10% FBS and 100 U/mL penicillin and streptomycin at 37°C in a fully humidified atmosphere of 5% CO2. High-glucose treatment was performed by treating cells with 15 or 30 mM D-glucose (HG) for 24-72 h.
Cell viability was assessed by MTT colorimetric assay. Briefly, HNDFs (2 × 10^4 cells/well) or HUVECs (5 × 10^4 cells/well) were seeded in a 24-well culture plate. After treatment with HG (15 and 30 mM) in the presence or absence of samples for 24-72 h, culture media was withdrawn and incubated with MTT (1 mg/mL) in fresh medium for 2 h. The MTT formazan crystals were dissolved in 400 μL of DMSO and the samples were measured at 570 nm […] using an ELISA microplate reader (Bio-Tek Instruments, Winooski, VT). The percentage of cell viability (%) was calculated as (A570 of treated cells/A570 of untreated cells) × 100.
On the technique in general: Tetrazolium dyes change colour on reduction, which living cells bring about.

The subject of series [2] is HNDFs. Description: SA-β-gal senescence assay in HG-induced HNDFs. The series is classed as cell-based, human. The following applies: for HG-induced SA-β-gal activity in kinase inhibitor-treated cells: inhibitor 30 μM with HG (30 mM) for 72 h (Figure 4H); for SA-β-gal positive cells: 10 μM with HG (30 mM) for 72 h, HG alone 9.59-fold (Figure 2B). As to the method:
as §1
Senescence-associated β-galactosidase (SA-β-gal) activity was determined in formaldehyde-fixed histochemical staining kit according to the manufacturer's instructions (Cell Signaling Technology, Danvers, […]). Briefly, cells were grown in 6-well plates at a density of 5 × 10^4 cells/well, and incubated with HG or test samples for 48 h (HUVECs) or 72 h (HNDFs). After incubation, cells were stained with SA-β-gal staining solution at pH 6.0 overnight and then the development of blue staining was observed and photographed under a bright-field microscope (Motic Electric Group, Xiamen, P.R. China).

The subject of series [3] is Nrf2 transcriptional activity (ARE promoter). Description: ARE luciferase reporter assay in HNDFs. The following applies: for ANM-induced ARE luciferase activity after inhibitor pretreatment: inhibitor pre-incubation 2 h, then ANM 6 h in the presence of HG; for ARE luciferase activity: 6 h. Format: cell-based, human. As for the experimental part: ARE promoter activity was measured using a dual-luciferase reporter assay system (Promega, Madison, WI). […] Cells were then transfected with ARE plasmid (Qiagen, Hilden, Germany) using Lipofectamine 2000 (Invitrogen) and incubated for 36 h. […] The cell lysate was prepared and incubated with luciferase agents and the relative luminescence intensity was quantified using a spectrophotometer (Hidex Oy, Turku, Finland).

Series [4] in a line: Cell-free DPPH free-radical scavenging assay.
Protocol: Therefore, next to determine whether ANM acts directly as a free-radical scavenger, we performed a cell-free DPPH free-radical scavenging assay.
Figure 5 Antcin M activates Nrf2-dependent anti-oxidant defense in HNDFs A. To determine the free-radical scavenging effect of ANM, cell-free DPPH assay was performed. […] Results expressed as mean ± S.E.M of three indipendent expriments.
In series [5] the test system is HNDFs. Description: Cell-cycle analysis by flow cytometry (PI) in HG-induced HNDFs. The series is classed as cell-based, human. Conditions: NAC 100 μM with HG (30 mM) for 72 h. As to the method:
HNDFs at a density of 5 × 10^5 cells in 10 cm dishes were treated with ANM or NAC in the presence or absence of HG for 72 h. Cells were collected, washed with PBS and fixed in 95% cold-ethanol, and kept at −20°C overnight. The cell pellet was then washed again with PBS and centrifuged at 1500 × g for 5 min. The pellet was re-suspended in 1 mL PI/Triton X-100 (20 μg/mL PI, 0.1% Triton X-100 and 0.2 mg/mL RNAse) and incubated on ice for 30 min. The total cellular DNA content was analyzed with a flow cytometer (Beckman Coulter FC500). Data were acquired and analyzed using CXP software (Beckman Coulter).
(In flow cytometry, cells or beads pass a laser one at a time.)

In series [6] the test system is HNDFs. Description: Flow cytometric detection of intracellular ROS (DCFH2-DA) in HNDFs. The series is classed as cell-based, human. As to the method: Intracellular ROS accumulation was determined using the dye DCFH2-DA following a procedure described earlier. Briefly, HNDFs (1 × 10^5 cells/well) were seeded in 6-well plates and incubated with HG in the presence or absence of test samples for 24 h. At the end of the incubation, the culture supernatant was removed and cells were washed twice with PBS. DCFH2-DA (10 μM) was mixed with 500 μL MEM and added to the culture plate. After incubation for 30 minutes, cells were collected by trypsin and the fluorescence shift was quantified using a flow cytometer (Beckman Coulter). Data were acquired and analyzed using CXP software (Beckman Coulter).

Series [7] concerns p16INK4A, p21CIP1 and SMP30. As to the kind of experiment: Western blot of senescence-associated marker proteins in HG-induced HNDFs. Format: cell-based, human. The following applies: 10 μM with HG (30 mM) for 72 h, immunoblotting. As for the experimental part: Cells were lysed by either RIPA lysis buffer or nuclear and cytoplasmic extraction reagents (Thermo Fisher Scientific). Protein concentrations were determined by Bio-Rad protein assay reagent (Bio-Rad Laboratories, Hercules, CA). Equal amounts of protein samples (60 μg) were separated by 7-12% SDS-PAGE and the separated proteins were transferred onto polyvinylidene […] (PVDC) membrane overnight. The transferred protein membranes were blocked with 5% non-fat dried milk for 30 min, followed by incubation with specific primary antibodies overnight, and either horseradish peroxidase-conjugated goat anti-rabbit or anti-mouse antibodies for 2 h. The blots were detected using VL Chemi-Smart 3000 (Viogene Biotek, Sunnyvale, CA) with the enhanced chemiluminescence (ECL) western blotting reagent (Millipore, Billerica, MA).
(In general: Immunoblotting shows a protein as a band on a membrane.)

Series [8] concerns HNDFs. Description: Cell proliferation, trypan blue exclusion assay in HG-induced HNDFs. Format: cell-based, human. Conditions: with HG (30 mM) for 72 h (Figure 2D). As to the method: Cell proliferation was evaluated using trypan blue exclusion assay as described previously with minor modification. Cells were plated into 6-well plates at a density of 5 × 10^4 cells/well. After incubation overnight, cells were treated with test samples in the presence or absence of HG for 24-72 h. Cells exposed to 0.2% Trypan blue were then counted in a hemocytometer, and cells stained with Trypan blue were excluded. Percentage of viable cells was calculated based on the ratio of viable cells to total cell population in each well. The proliferation rate was calculated based on the number of viable cells in HG or sample-treated groups versus the NG-treated group.

Where [9] appears, read: Homo sapiens, 72 h, 1, 5, 10 and 20 μM for 72 h.

Consider `C=C(CC[C@@H](C)[C@H]1CC[C@H]2C3=C(C(=O)C[C@]12C)[C@@]1(C)CCC(=O)[C@@H](C)[C@@H]1CC3=O)[C@H](C)C(=O)O` [ANB, antcin B], for which the IC50 in series [1] (setting [9]) is 7.11 µM.

Turning to `Oc1c2ccccc2c2c3c(cccc13)N=N2` [SP600125, reference compound], the “HG-induced SA-β-gal activity in kinase inhibitor-treated cells” value in series [2] is “barely observed”. In addition, the “ANM-induced ARE luciferase activity after inhibitor pretreatment” value in series [3] is on record as “partially or barely inhibited”.

For the molecule `C[S+]([O-])c1ccc(-c2nc(-c3ccncc3)c(-c3ccc(F)cc3)[nH]2)cc1` (stereo not drawn) [SB203580, reference compound], the “HG-induced SA-β-gal activity in kinase inhibitor-treated cells” value in series [2] is given as “barely observed”. Further, the “ANM-induced ARE luciferase activity after inhibitor pretreatment” value in series [3] is “partially or barely inhibited”.

For the molecule `O=c1cc(N2CCOCC2)oc2c(-c3ccccc3)cccc12` [LY294002, reference compound], the “HG-induced SA-β-gal activity in kinase inhibitor-treated cells” value in series [2] is listed as “reduced”. Moreover, in series [3], the “ANM-induced ARE luciferase activity after inhibitor pretreatment” value was “effectively suppressed”.

Turning to `C=C(CC[C@@H](C)[C@H]1CC[C@H]2C3=C(C(=O)C[C@]12C)[C@@]1(C)CC[C@@H](O)[C@](C)(O)[C@@H]1C[C@@H]3O)C(C)C(=O)O` (stereo partly drawn) [ANK, antcin K], in series [1] (setting [9]), the IC50 came out at 2.89 µM.

For the molecule `CC(=O)N[C@@H](CS)C(=O)O` [NAC, N-acetylcysteine, reference compound], the “free-radical scavenging in the cell-free system” value in series [4] is listed as “potent free-radical scavenging effect”. In addition, the ARE luciferase activity in series [3] (ANM 10 μM or NAC 100 μM alone, control 1-fold) came out at 6.3 fold; in series [3] (co-treated with HG (30 mM), ANM 10 μM or NAC 100 μM, HG alone 2.5-fold) it was 8.2 fold. In addition, in series [5], the HG-induced cell-cycle arrest result was “partially blocked”. In series [6] (ANM 10 μM or NAC 100 μM with HG (30 mM) for 24 h, HG alone 426.2%), the “HG-induced ROS generation” value came to 176.58%. Moreover, in series [6] (ANM 10 μM or NAC 100 μM without HG, 24 h), the “ROS generation, treatment alone” value is reported as “did not significantly increase ROS generation”.

As to `C=C(CCC(C)C1CCC2C3=C(C(=O)C(O)C21C)C1(C)CCC(O)C(C)C1CC3=O)C(C)C(=O)O` (stereo not drawn) [ANH, antcin H], the “HG-induced upregulation of p16INK4A and p21CIP1 proteins” value in series [7] is listed as “moderate inhibition”. This molecule gave an SA-β-gal positive cells in series [2] of 8.13 fold. The IC50 in series [1] (1, 5, 10 and 20 μM for 72 h) was > 50 µM. Besides, the “cytotoxicity to HNDFs up to the high treatment concentration” value in series [1] is “did not show significant cytotoxicity”. In series [8], the “cell proliferation compared to the HG treatment group” value is listed as “partially increased cell proliferation”.

As for `C=C(CCC(C)C1CCC2C3=C(C(=O)CC21C)C1(C)CCC(=O)C(C)C1CC3O)C(C)C(=O)O` (stereo not drawn) [ANC, antcin C], the IC50 in series [1] (setting [9]) was > 50 µM. Also, the “cytotoxicity to HNDFs up to the high treatment concentration” value in series [1] is given as “did not show significant cytotoxicity”.

As for `C=C(CC[C@@H](C)[C@H]1CC[C@H]2C3=C(C(=O)C[C@]12C)[C@@]1(C)CCC(=O)[C@@H](C)[C@@H]1CC3)C(C)C(=O)O` (stereo partly drawn) [ANA, antcin A], in series [7], the “HG-induced upregulation of p16INK4A and p21CIP1 proteins” value is “moderate inhibition”. In series [2], this molecule returned an SA-β-gal positive cells of 7.46 fold. For the same molecule, in series [1] (setting [9]), the IC50 was > 50 µM. Also, in series [8], the “cell proliferation compared to the HG treatment group” value is on record as “partially increased cell proliferation”.

Consider `COc1cccc(-c2cc(=O)c3ccccc3o2)c1N` [PD98059, reference compound], for which, in series [2], the “HG-induced SA-β-gal activity in kinase inhibitor-treated cells” value was “did not affect”. In series [3], the “ANM-induced ARE luciferase activity after inhibitor pretreatment” value is on record as “effectively suppressed”.
